Experimental data: patent publication US9232796B2, “Herbicidal compositions comprising 4-amino-3-chloro-5-fluoro-6-(4-chloro-2-fluoro-3-methoxyphenyl) pyridine-2-carboxylic acid or a derivative thereof and acetyl-CoA carboxylase (ACCase) inhibitors” (DOW AGROSCIENCES LLC, priority 2012, dated 2016)

Legend:
ECHOR = assay: Example VI in-water applied ternary mixtures, greenhouse, transplanted paddy rice weeds; format: in vivo, Echinochloa oryzoides (Ard.) Fritsch
Description: Weed seeds or nutlets of the desired test plant species were planted in puddled soil (mud) prepared by mixing a shredded, non-sterilized mineral soil (50.5 percent silt, 25.5 percent clay, and 24 percent sand, with a pH of about 7.6 and an organic matter content of about 2.9 percent) and water at a 1:1 volumetric ratio. The prepared mud was dispensed in 365 mL aliquots into 16-ounce (oz.) non-perforated plastic pots with a surface area of 86.59 square centimeters (cm^2) leaving a headspace of 3 centimeters (cm) in each pot. Mud was allowed to dry overnight prior to planting or transplanting. Rice seeds were planted in Sun Gro MetroMix® 306 planting mixture, which typically has a pH of 6.0 to 6.8 and an organic matter content of about 30 percent, in plastic plug trays. Seedlings at the second or third leaf stage of growth were transplanted into 860 mL of mud contained in 32-oz. non-perforated plastic pots with a surface area of 86.59 cm^2 4 days prior to herbicide application. The paddy was created by filling the headspace of the pots with 2.5 to 3 cm of water. When required to ensure good germination and healthy plants, a fungicide treatment and/or other chemical or physical treatment was applied. The plants were grown for 4-22 days in a greenhouse with an approximate 14 hr. photoperiod which was maintained at about 29° C. during the day and 26° C. during the night. Nutrients were added as Osmocote® (19:6:12, N:P:K+minor nutrients) at 2 g per 16-oz. pot and 4 g per 32-oz. pot. Water was added on a regular basis to maintain the paddy flood, and supplemental lighting was provided with overhead metal halide 1000-Watt lamps as necessary. The plants were employed for testing when they reached the first through fourth true leaf stage.
Treatments consisted of the benzyl ester of 4-amino-3-chloro-5-fluoro-6-(4-chloro-2-fluoro-3-methoxy-phenyl)pyridine-2-carboxylic acid (Compound A), formulated as an SC (suspension concentrate), an ACCase inhibitor herbicide, and a third herbicidal component, each applied alone and in ternary combination. Forms of compound A were applied on an acid equivalent basis.
The ACCase inhibitor component was applied on an active ingredient basis and included cyhalofop-R-butyl formulated as Clincher® G and metamifop formulated as Metamifop EC. Other herbicidal components were applied on an active ingredient or acid equivalent basis depending on the compound and included penoxsulam formulated as Grasp® SC, bentazon sodium formulated as Basagran®, triclopyr […] (TEA) salt formulated as Grandstand® R, benzobicyclon formulated as Benzobicyclon, benfuresate formulated as Full Slot® WG, pyraclonil formulated as Pyraclon® Flowable, mefenacet (technical grade material), and pretilachlor (technical grade material).
Treatment requirements for each compound or herbicidal component were calculated based upon the rates being tested, the concentration of active ingredient or acid equivalent in the formulation, an application volume of 1 mL per component per pot, and an application area of 86.59 cm^2 per pot.
For formulated compounds, a measured amount was placed in an individual 100 or 200 mL glass vial and was dissolved in a volume of 1.25% (v/v) Agri-Dex® crop oil concentrate to obtain application solutions.
For technical grade compounds, a weighed amount was placed in an individual 100 to 200 mL glass vial and was dissolved in a volume of acetone to obtain concentrated stock solutions.
Applications were made by injecting with a pipetter appropriate amounts of the application solutions, into the aqueous layer of the paddy. Control plants were treated in the same manner with the solvent blank. Applications were made so that all treated plant material received the same concentrations of acetone and crop oil concentrate.
The treated plants and control plants were placed in a greenhouse as described above and water was added as needed to maintain a paddy flood. […]

LOLMU = assay: Example III postemergence foliar-applied, greenhouse, weeds common to row crops such as corn and soybeans; format: in vivo, Lolium multiflorum Lam.
Source text: Seeds or nutlets of the desired test plant species were planted in a soil matrix prepared by mixing a loam or sandy loam soil (e.g., 28.6 percent silt, 18.8 percent clay, and 52.6 percent sand, with a pH of about 5.8 and an organic matter content of about 1.8 percent) and calcareous grit in an 80 to 20 ratio. The soil matrix was contained in plastic pots with a surface area of 84.6 square centimeters (cm^2) and a volume of 560 cubic centimeters (cm^3). When required to ensure good germination and healthy plants, a fungicide treatment and/or other chemical or physical treatment was applied. The plants were grown for 7-31 days (d) in a greenhouse with an approximate 15 hour (h) photoperiod which was maintained at about 23-29° C. during the day and 22-28° C. during the night. Nutrients (Peters Excel® 15-5-15 5-Ca 2-Mg) and water were added on a regular basis and supplemental lighting was provided with overhead metal halide 1000-Watt lamps as necessary. The plants were employed for testing when they reached the first, second, or third true leaf stage.
Treatment requirements were calculated based upon the rates being tested, the concentration of active ingredient or acid equivalent in the formulation, and a 12 mL application volume at a rate of 187 L/ha.
Treatments consisted of the acid or esters of 4-amino-3-chloro-5-fluoro-6-(4-chloro-2-fluoro-3-methoxy-phenyl)pyridine-2-carboxylic acid (Compound A), each formulated as an SC (suspension concentrate), and various herbicidal components alone and in combination.
Other herbicidal components were applied on an acid equivalent basis and included acetyl coA carboxylase (ACCase)-inhibiting herbicide (cyclohexanedione and aryloxyphenoxypropionate chemical classes) quizalofop-p-ethyl formulated as Assure® II.
All stock solutions and applications solutions were visually inspected for compound compatibility prior to application. Compound requirements are based upon a 12 mL application volume at a rate of 187 liters per hectare (L/ha). Formulated compounds were applied to the plant material with an overhead Mandel track sprayer equipped with 8002E nozzles calibrated to deliver 187 L/ha over an application area of 0.503 square meters (m^2) at a spray height of 18 to 20 inches (46 to 50 cm) above the average plant canopy height. Control plants were sprayed in the same manner with the solvent blank.
The treated plants and control plants were placed in a greenhouse as described above and watered by sub-irrigation to prevent wash-off of the test compounds. After approximately 2 weeks, the condition of the test plants as compared with that of the untreated plants was determined visually and scored on a scale of 0 to 100 percent where 0 corresponds to no injury or growth inhibition and 100 corresponds to complete kill.
Colby's equation was used to determine the herbicidal effects expected from the mixtures (Colby, S. R. 1967. Calculation of the synergistic and antagonistic response of herbicide combinations. Weeds 15:20-22.).
The following equation was used to calculate the expected activity of mixtures containing two active ingredients, A and B: Expected=A+B−(A×B/100)

C[C@@H](Oc1ccc(Oc2nc3ccc(Cl)cc3o2)cc1)C(=O)N(C)c1ccccc1F [Metamifop, (2R)-2-[4-[(6-chloro-2-benzoxazolyl)oxy]phenoxy]-N-(2-fluorophenyl)-N-methylpropanamide]
Visual Weed Control (%) - 24 DAA ECHOR Obs (ECHOR; Table 71, 25 gai/ha): 10%
Visual Weed Control (%) - 24 DAA ECHOR Obs (ECHOR; Table 71, 50 gai/ha): 18%

COc1c(Cl)ccc(-c2nc(C(=O)OCc3ccccc3)c(Cl)c(N)c2F)c1F [Compound A Benzyl Ester, benzyl ester of 4-amino-3-chloro-5-fluoro-6-(4-chloro-2-fluoro-3-methoxy-phenyl)pyridine-2-carboxylic acid]
Visual Weed Control (%) - 14 DAA LOLMU Obs (LOLMU; Compound A Benzyl Ester 3.75 gae/ha): 0%
Visual Weed Control (%) - 14 DAA LOLMU Obs (LOLMU; Compound A Benzyl Ester 7.5 gae/ha): 10%
Visual Weed Control (%) - 14 DAA LOLMU Obs (LOLMU; Compound A Benzyl Ester 15 gae/ha): 10%
Visual Weed Control (%) - 24 DAA ECHOR Obs (ECHOR; Table 67, 4 gae/ha): 0%
Visual Weed Control (%) - 24 DAA ECHOR Obs (ECHOR; Table 67, 8 gae/ha): 0%
Visual Weed Control (%) - 24 DAA ECHOR Obs (ECHOR; Table 67, 16 gae/ha): 10%
Visual Weed Control (%) - 24 DAA ECHOR Obs (ECHOR; Table 71, 8 gae/ha): 10%
Visual Weed Control (%) - 24 DAA ECHOR Obs (ECHOR; Table 71, 16 gae/ha): 25%

COc1c(Cl)ccc(-c2nc(C(=O)O)c(Cl)c(N)c2F)c1F [Compound A Acid, 4-amino-3-chloro-6-(4-chloro-2-fluoro-3-methoxyphenyl)-5-fluoropyridine-2-carboxylic acid]
Visual Weed Control (%) - 14 DAA LOLMU Obs (LOLMU; Compound A Acid 3.75 gae/ha): 0%
Visual Weed Control (%) - 14 DAA LOLMU Obs (LOLMU; Compound A Acid 7.5 gae/ha): 10%
Visual Weed Control (%) - 14 DAA LOLMU Obs (LOLMU; Compound A Acid 15 gae/ha): 10%

CCCCOC(=O)[C@@H](C)Oc1ccc(Oc2ccc(C#N)cc2F)cc1 [Cyhalofop-butyl, butyl(2R)-2-[4-(4-cyano-2-fluorophenoxy)phenoxy]propanoate, reference compound]
Visual Weed Control (%) - 24 DAA ECHOR Obs (ECHOR; Table 67, 90 gai/ha): 25%

CCOC(=O)[C@@H](C)Oc1ccc(Oc2cnc3cc(Cl)ccc3n2)cc1 [Quizalofop-p-ethyl, ethyl(2R)-2-[4-[(6-chloro-2-quinoxalinyl)oxy]phenoxy]propanoate, reference compound]
Visual Weed Control (%) - 14 DAA LOLMU Obs (LOLMU; Quizalofop-p-ethyl 3.56 gae/ha): 0%
Visual Weed Control (%) - 14 DAA LOLMU Obs (LOLMU; Quizalofop-p-ethyl 7.125 gae/ha): 60%
